Results: PubChem BioAssay (NCI)
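Growth conditions: 96-well plates. Treatment: test compound, 48 hours, 5 concentrations. Analysis: linear interpolation between bracketing concentrations; unreached endpoints set to highest concentration. GI50 is the concentration that inhibits growth by half. The concentration for full growth arrest is given as TGI.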

Key:
Test in all cases: NCI anticancer screen, dose series, 48 h
[1] = test system: MOLT-4 leukemia
[2] = test system: SR leukemia
[3] = test system: SNB-75 CNS
[4] = test system: SN12C renal
[5] = test system: RXF 393 renal
[6] = test system: HCT-116 colon
[7] = test system: NCI-H226 lung
[8] = test system: TK-10 renal
[9] = test system: HOP-62 NSCLC
[10] = test system: SK-MEL-5 melanoma
[11] = test system: HCC-2998 colon
[12] = test system: SF-539 CNS
[13] = test system: MDA-MB-435
[14] = test system: OVCAR-4 ovarian
[15] = test system: BT-549 breast
[16] = test system: SW-620 colon
[17] = test system: COLO 205 colon
[18] = test system: NCI-H522 lung
[19] = test system: OVCAR-8 ovarian
[20] = test system: UACC-62 melanoma
[21] = test system: U251 CNS
[22] = test system: CCRF-CEM leukemia
[23] = test system: NCI-H460 lung
[24] = test system: MDA-MB-231 breast
[25] = test system: M14 melanoma
[26] = test system: UO-31 renal
[27] = test system: HOP-92 NSCLC
[28] = test system: HS 578T breast
[29] = test system: A498 renal
[30] = test system: KM12 colon
[31] = test system: PC-3 prostate
[32] = test system: K-562 leukemia
[33] = test system: A549 NSCLC
[34] = test system: MCF7 breast
[35] = test system: IGROV1 ovarian
[36] = test system: T-47D breast
[37] = test system: SNB-19 CNS
[38] = test system: RPMI-8226 leukemia
[39] = test system: OVCAR-5 ovarian
[40] = test system: MALME-3M melanoma
[41] = test system: SK-OV-3 ovarian
[42] = test system: NCI-H23 lung
[43] = test system: SK-MEL-28 melanoma
[44] = test system: HT29 colon
[45] = test system: 786-0 renal
[46] = test system: SK-MEL-2 melanoma
[47] = test system: OVCAR-3 ovarian
[48] = test system: CAKI-1 renal
[49] = test system: HCT-15 colon
[50] = test system: SF-268 CNS
[51] = test system: NCI/ADR-RES ovarian
[52] = test system: HL-60(TB) leukemia
[53] = test system: SF-295 CNS
[54] = test system: ACHN renal
[55] = test system: LOX IMVI melanoma
[56] = test system: UACC-257 melanoma
[57] = test system: DU-145 prostate
[58] = test system: EKVX NSCLC

Compound: CCO/C=N/C1=C(C#N)C(c2ccc(F)cc2)c2sc3c(C)cccc3c2O1 (stereo not given)
- GI50 [1]: 0.56 µM
- TGI [1]: 32.2 µM
- GI50 [2]: 0.524 µM
- TGI [2]: 60.1 µM
- GI50 [3]: 0.114 µM
- TGI [3]: 2.64 µM
- GI50 [4]: 0.534 µM
- TGI [4]: 13.9 µM
- GI50 [5]: 0.175 µM
- TGI [5]: 0.55 µM
- GI50 [6]: 0.375 µM
- TGI [6]: 10.4 µM
- GI50 [7]: 1.29 µM
- TGI [7]: 12.1 µM
- GI50 [8]: 11.8 µM
- TGI [8]: 27.5 µM
- GI50 [9]: 0.423 µM
- TGI [9]: 15.8 µM
- GI50 [10]: 0.487 µM
- TGI [10]: 2.53 µM
- GI50 [11]: 0.421 µM
- TGI [11]: 12.9 µM
- GI50 [12]: 0.243 µM
- TGI [12]: 1.54 µM
- GI50 [13]: 0.178 µM
- TGI [13]: 0.609 µM
- GI50 [14]: 1.7 µM
- TGI [14]: 24.8 µM
- GI50 [15]: 0.751 µM
- TGI [15]: 5.63 µM
- GI50 [16]: 0.401 µM
- TGI [16]: 15.8 µM
- GI50 [17]: 0.401 µM
- TGI [17]: 2.25 µM
- GI50 [18]: 0.214 µM
- TGI [18]: 11.7 µM
- GI50 [19]: 0.499 µM
- TGI [19]: 20.3 µM
- GI50 [20]: 0.404 µM
- TGI [20]: 19.5 µM
- GI50 [21]: 0.473 µM
- TGI [21]: 15.5 µM
- GI50 [22]: 0.359 µM
- TGI [22]: 21.3 µM
- GI50 [23]: 0.367 µM
- TGI [23]: 11.1 µM
- GI50 [24]: 0.531 µM
- TGI [24]: 17.6 µM
- GI50 [25]: 0.316 µM
- TGI [25]: 12.2 µM
- GI50 [26]: 0.572 µM
- TGI [26]: 15.9 µM
- GI50 [27]: 0.624 µM
- TGI [27]: 8 µM
- GI50 [28]: 0.325 µM
- TGI [28]: 14.8 µM
- GI50 [29]: 0.261 µM
- TGI [29]: 1.48 µM
- GI50 [30]: 0.389 µM
- TGI [30]: 14.7 µM
- GI50 [31]: 0.386 µM
- TGI [31]: 14.8 µM
- GI50 [32]: 0.281 µM
- TGI [32]: > 62.1 µM
- GI50 [33]: 0.458 µM
- TGI [33]: 18.7 µM
- GI50 [34]: 0.271 µM
- TGI [34]: 13.1 µM
- GI50 [35]: 0.379 µM
- TGI [35]: 14.9 µM
- GI50 [36]: 0.818 µM
- TGI [36]: 66.9 µM
- GI50 [37]: 0.452 µM
- TGI [37]: 16.5 µM
- GI50 [38]: 0.371 µM
- TGI [38]: 11 µM
- GI50 [39]: 0.574 µM
- TGI [39]: 16.4 µM
- GI50 [40]: 10.6 µM
- TGI [40]: 24.8 µM
- GI50 [41]: 0.834 µM
- TGI [41]: 25.5 µM
- GI50 [42]: 0.517 µM
- TGI [42]: 14.7 µM
- GI50 [43]: 1.4 µM
- TGI [43]: 20.6 µM
- GI50 [44]: 0.389 µM
- TGI [44]: 12.6 µM
- GI50 [45]: 0.614 µM
- TGI [45]: 12.9 µM
- GI50 [46]: 0.726 µM
- TGI [46]: 20.7 µM
- GI50 [47]: 0.379 µM
- TGI [47]: 11.9 µM
- GI50 [48]: 0.386 µM
- TGI [48]: 17.2 µM
- GI50 [49]: 0.336 µM
- TGI [49]: 11.5 µM
- GI50 [50]: 1.74 µM
- TGI [50]: 17.3 µM
- GI50 [51]: 0.22 µM
- TGI [51]: 12.7 µM
- GI50 [52]: 0.34 µM
- TGI [52]: 12.9 µM
- GI50 [53]: 0.25 µM
- TGI [53]: 2.8 µM
- GI50 [54]: 0.616 µM
- TGI [54]: 14.6 µM
- GI50 [55]: 0.626 µM
- TGI [55]: 14.1 µM
- GI50 [56]: 12.9 µM
- TGI [56]: 35.6 µM
- GI50 [57]: 0.434 µM
- TGI [57]: 14.2 µM
- GI50 [58]: 0.383 µM
- TGI [58]: 18.3 µM

Compound: Cc1cc2c(-c3ccc(NC(=O)[C@H](N)CC(C)(C)C)cc3C)ccnc2[nH]1
- GI50 [1]: 4.69 µM
- TGI [1]: 24 µM
- GI50 [2]: 2.08 µM
- TGI [2]: 6.37 µM
- GI50 [3]: 4.72 µM
- TGI [3]: 18.1 µM
- GI50 [4]: 11.1 µM
- TGI [4]: 23.6 µM
- GI50 [5]: 3.68 µM
- TGI [5]: 16 µM
- GI50 [6]: 4.85 µM
- TGI [6]: 16.5 µM
- GI50 [7]: 10.7 µM
- TGI [7]: 27.2 µM
- GI50 [8]: 12.6 µM
- TGI [8]: 25.3 µM
- GI50 [9]: 11.4 µM
- TGI [9]: 24.6 µM
- GI50 [10]: 2.46 µM
- TGI [10]: 6.53 µM
- GI50 [11]: 5.81 µM
- TGI [11]: 20.9 µM
- GI50 [12]: 7.97 µM
- TGI [12]: 21 µM
- GI50 [13]: 7 µM
- TGI [13]: 19.9 µM
- GI50 [14]: 6.95 µM
- TGI [14]: 20.8 µM
- GI50 [15]: 6.31 µM
- TGI [15]: 19.5 µM
- GI50 [16]: 5.63 µM
- TGI [16]: 19.7 µM
- GI50 [17]: 1.82 µM
- TGI [17]: 3.54 µM
- GI50 [18]: 13 µM
- TGI [18]: 26.3 µM
- GI50 [19]: 13.6 µM
- TGI [19]: 28 µM
- GI50 [20]: 8.6 µM
- TGI [20]: 21 µM
- GI50 [21]: 5.99 µM
- TGI [21]: 19.5 µM
- GI50 [22]: 5.41 µM
- TGI [22]: 28.2 µM
- GI50 [23]: 5.7 µM
- TGI [23]: 19 µM
- GI50 [24]: 7.43 µM
- TGI [24]: 20.7 µM
- GI50 [25]: 11 µM
- TGI [25]: 23.5 µM
- GI50 [26]: 4.62 µM
- TGI [26]: 18.1 µM
- GI50 [27]: 2.67 µM
- TGI [27]: 10.3 µM
- GI50 [28]: 1.42 µM
- TGI [28]: 12.3 µM
- GI50 [29]: 2.2 µM
- TGI [29]: 12.8 µM
- GI50 [30]: 6.1 µM
- TGI [30]: 21.2 µM
- GI50 [31]: 7.91 µM
- TGI [31]: 22.1 µM
- GI50 [32]: 2.82 µM
- TGI [32]: 41.2 µM
- GI50 [33]: 10.3 µM
- TGI [33]: 26 µM
- GI50 [34]: 5.54 µM
- TGI [34]: 30.5 µM
- GI50 [35]: 12.2 µM
- TGI [35]: 26.1 µM
- GI50 [36]: 6.71 µM
- TGI [36]: 24.8 µM
- GI50 [37]: 11.3 µM
- TGI [37]: 23.5 µM
- GI50 [38]: 2.77 µM
- TGI [38]: 7.82 µM
- GI50 [39]: 10.4 µM
- TGI [39]: 22.3 µM
- GI50 [40]: 10.2 µM
- TGI [40]: 22.8 µM
- GI50 [41]: 12.4 µM
- TGI [41]: 25.2 µM
- GI50 [43]: 8.48 µM
- TGI [43]: 20.8 µM
- GI50 [44]: 2.72 µM
- TGI [44]: 8.84 µM
- GI50 [45]: 1.81 µM
- TGI [45]: 3.4 µM
- GI50 [46]: 14 µM
- TGI [46]: 27.2 µM
- GI50 [47]: 11.6 µM
- TGI [47]: 24.8 µM
- GI50 [48]: 4.5 µM
- TGI [48]: 16.3 µM
- GI50 [49]: 4.52 µM
- TGI [49]: 21.8 µM
- GI50 [50]: 11.1 µM
- TGI [50]: 26.6 µM
- GI50 [51]: 13.4 µM
- TGI [51]: 35.8 µM
- GI50 [52]: 2.89 µM
- TGI [52]: 14 µM
- GI50 [53]: 8.33 µM
- TGI [53]: 25.7 µM
- GI50 [54]: 10.5 µM
- TGI [54]: 22.3 µM
- GI50 [55]: 5.9 µM
- TGI [55]: 25.9 µM
- GI50 [56]: 10.5 µM
- TGI [56]: 23 µM
- GI50 [57]: 12.4 µM
- TGI [57]: 25.5 µM
- GI50 [58]: 11.2 µM
- TGI [58]: 28.3 µM
